The results in this text go back to paper PMC10877290 (Heliyon, 2024).

Entries after “also recorded” stand apart in the source; their conditions may differ.

Holding throughout (type): biochemical
Assay [1] addresses T1, human pancreatic α-amylase (Homo sapiens, UniProt P04746).
T1 sequence (P04746 16-511): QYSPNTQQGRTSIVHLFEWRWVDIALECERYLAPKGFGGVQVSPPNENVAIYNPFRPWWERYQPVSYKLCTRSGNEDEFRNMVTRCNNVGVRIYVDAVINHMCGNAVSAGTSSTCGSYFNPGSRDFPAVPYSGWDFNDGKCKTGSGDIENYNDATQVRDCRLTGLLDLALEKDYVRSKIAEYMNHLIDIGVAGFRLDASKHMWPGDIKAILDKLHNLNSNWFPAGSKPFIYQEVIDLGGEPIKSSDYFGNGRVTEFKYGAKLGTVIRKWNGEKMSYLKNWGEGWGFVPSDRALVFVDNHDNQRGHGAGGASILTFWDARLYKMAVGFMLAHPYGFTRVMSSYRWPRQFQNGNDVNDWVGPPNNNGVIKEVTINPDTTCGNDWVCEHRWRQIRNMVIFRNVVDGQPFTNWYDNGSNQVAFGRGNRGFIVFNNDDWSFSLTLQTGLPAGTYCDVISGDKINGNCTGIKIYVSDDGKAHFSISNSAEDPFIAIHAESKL
As to the kind of experiment: α-Amylase inhibition assay.

The target of assay [2] is human lysosomal acid-α-glucosidase (Homo sapiens, UniProt P10253). As to the kind of experiment: α-Glucosidase inhibition assay.
Assay [3] deals with T2, α-amylase (Homo sapiens, UniProt P04746).
T2 sequence (P04746 16-511): T1 sequence (P04746 16-511)
Briefly: Enzyme kinetic study, α-amylase. The conditions noted are these: for Inhibition mode towards α-amylase: Lineweaver-Burk plot.

Assay [4] deals with α-glucosidase (Homo sapiens, UniProt P10253). Briefly: Enzyme kinetic study, α-glucosidase. Particulars: for Inhibition mode towards α-glucosidase: Lineweaver-Burk plot.

Usually IC50 stands for the concentration that inhibits the measured activity by half. Read a low IC50 as greater potency in that assay. In general, Ki refers to a measure of affinity in units of concentration, obtained from inhibition or displacement. Low readings indicate a stronger hold on the target, high ones a looser hold on the target.

`COc1cc(C[C@@H]2C[C@H]3C(=O)N(C)[C@@]4(C[C@H](C)CC[C@H]4C(C)C)N3O2)ccc1OCC(=O)N/N=C1\C(=O)Nc2cc(Br)ccc21` [5c, N'-((Z)-6-bromo-2-oxoindolin-3-ylidene)-2-(4-(((1S,2S,2′R,3a′S,5R)-2-isopropyl-5,5′-dimethyl-4′-oxotetrahydro-2′H-spiro[cyclohexane-1,6′-imidazo [1,5-b]isoxazol]-2′-yl)methyl)-2-methoxyphenoxy)acetohydrazide]: the IC50 is 68 ± 3.4 µM in assay [1] and 152 ± 7.56 µM in assay [2].

In assay [1], `COc1cc(C[C@@H]2C[C@H]3C(=O)N(C)[C@@]4(C[C@H](C)CC[C@H]4C(C)C)N3O2)ccc1OCC(=O)N/N=C1\C(=O)Nc2ccc(F)cc21` [5b, N'-((Z)-5-fluoro-2-oxoindolin-3-ylidene)-2-(4-(((1S,2S,2′R,3a′S,5R)-2-isopropyl-5,5′-dimethyl-4′-oxotetrahydro-2′H-spiro[cyclohexane-1,6′-imidazo [1,5-b]isoxazol]-2′-yl)methyl)-2-methoxyphenoxy)acetohydrazide] came in with a 50% inhibitory concentration (IC50) of 174 ± 8.71 µM.

As for `Cc1cccc(C[C@@H]2C[C@H]3C(=O)N(C)[C@@]4(C[C@H](C)CC[C@H]4C(C)C)N3O2)c1OCC(=O)N/N=C1\C(=O)Nc2cc(Br)ccc21` [5e, N'-((Z)-6-bromo-2-oxoindolin-3-ylidene)-2-(2-(((1S,2S,2′R,3a′S,5R)-2-isopropyl-5,5′-dimethyl-4′-oxotetrahydro-2′H-spiro[cyclohexane-1,6′-imidazo [1,5-b]isoxazol]-2′-yl)methyl)-6-methylphenoxy)acetohydrazide], the IC50 was determined as 92.4 ± 4.05 µM in assay [1] and 172 ± 8.44 µM in assay [2].

As for `Cc1cccc(C[C@@H]2C[C@H]3C(=O)N(C)[C@@]4(C[C@H](C)CC[C@H]4C(C)C)N3O2)c1OCC(=O)N/N=C1\C(=O)Nc2c(F)cccc21` [5h, N'-((Z)-7-fluoro-2-oxoindolin-3-ylidene)-2-(2-(((1S,2S,2′R,3a′S,5R)-2-isopropyl-5,5′-dimethyl-4′-oxotetrahydro-2′H-spiro[cyclohexane-1,6′-imidazo [1,5-b]isoxazol]-2′-yl)methyl)-6-methylphenoxy)acetohydrazide], the concentration for half-maximal inhibition (IC50) in assay [1] amounted to 46.6 ± 2.3 µM; in assay [2] it was 85.2 ± 4.25 µM.

For the compound `Cc1cccc(C[C@@H]2C[C@H]3C(=O)N(C)[C@@]4(C[C@H](C)CC[C@H]4C(C)C)N3O2)c1OCC(=O)N/N=C1\C(=O)Nc2ccc(F)cc21` [5f, N'-((Z)-5-fluoro-2-oxoindolin-3-ylidene)-2-(2-(((1S,2S,2′R,3a′S,5R)-2-isopropyl-5,5′-dimethyl-4′-oxotetrahydro-2′H-spiro[cyclohexane-1,6′-imidazo [1,5-b]isoxazol]-2′-yl)methyl)-6-methylphenoxy)acetohydrazide], the half-inhibitory concentration (IC50) in assay [1] was 55.7 ± 2.78 µM; in assay [2] it was 107 ± 5.31 µM.

For the compound `Cc1ccc2c(c1)/C(=N/NC(=O)COc1c(C)cccc1C[C@@H]1C[C@H]3C(=O)N(C)[C@@]4(C[C@H](C)CC[C@H]4C(C)C)N3O1)C(=O)N2` [5g, 2-(2-(((1S,2S,2′R,3a′S,5R)-2-isopropyl-5,5′-dimethyl-4′-oxotetrahydro-2′H-spiro[cyclohexane-1,6′-imidazo [1,5-b]isoxazol]-2′-yl)methyl)-6-methylphenoxy)-N'-((Z)-5-methyl-2-oxoindolin-3-ylidene)acetohydrazide], in assay [1], the half-inhibitory concentration (IC50) was 135 ± 6.73 µM.

For the compound `C[C@H]1O[C@H](O[C@H]2[C@H](O)[C@@H](O)[C@@H](O[C@H]3[C@H](O)[C@@H](O)C(O)O[C@@H]3CO)O[C@@H]2CO)[C@H](O)[C@@H](O)[C@@H]1N[C@H]1C=C(CO)[C@@H](O)[C@H](O)[C@H]1O` (stereo partly shown) [Acarbose, reference compound], the “Inhibition mode towards α-amylase” value in assay [3] is listed as “competitive inhibition; also recorded: competitive inhibitors”. In addition, the “Inhibition mode towards α-glucosidase” value in assay [4] is given as “competitive inhibitors; also recorded: compete with the substrate”.

As for `Cc1cccc(C[C@@H]2C[C@H]3C(=O)N(C)[C@@]4(C[C@H](C)CC[C@H]4C(C)C)N3O2)c1OCC(=O)N/N=C1\C(=O)Nc2c(Cl)cccc21` [5d, N'-((Z)-7-chloro-2-oxoindolin-3-ylidene)-2-(2-(((1S,2S,2′R,3a′S,5R)-2-isopropyl-5,5′-dimethyl-4′-oxotetrahydro-2′H-spiro[cyclohexane-1,6′-imidazo [1,5-b]isoxazol]-2′-yl)methyl)-6-methylphenoxy)acetohydrazide], the 50% inhibitory concentration (IC50) in assay [1] stood at 30.4 ± 1.52 µM; in assay [2], 65.1 ± 3.11 µM. For the same compound, the Ki in assay [3] is 27.5 µM; in assay [4], 56.1 µM. Further, the “Inhibition mode towards α-amylase” value in assay [3] is “competitive inhibition; also recorded: competitive inhibitors”. For the same compound, the “Inhibition mode towards α-glucosidase” value in assay [4] is given as “competitive inhibitors; also recorded: compete with the substrate”.

Turning to `COc1cc(C[C@@H]2C[C@H]3C(=O)N(C)[C@@]4(C[C@H](C)CC[C@H]4C(C)C)N3O2)ccc1OCC(=O)N/N=C1\C(=O)Nc2c(Cl)cccc21` [5a, N'-((Z)-7-chloro-2-oxoindolin-3-ylidene)-2-(4-(((1S,2S,2′R,3a′S,5R)-2-isopropyl-5,5′-dimethyl-4′-oxotetrahydro-2′H-spiro[cyclohexane-1,6′-imidazo [1,5-b]isoxazol]-2′-yl)methyl)-2-methoxyphenoxy)acetohydrazide], the IC50 is 194 ± 9.54 µM in assay [1] and 209 ± 10.4 µM in assay [2]. Besides, in assay [1] (5a versus 5d), the “Factor by which α-amylase activity is impaired relative to 5d” value came to 6.3. The “Factor by which α-glucosidase activity is impaired relative to 5d” value in assay [2] (5a versus 5d) is listed as 3.2.
